Experimental data: ChEMBL document CHEMBL1212786 (Antimicrob Agents Chemother, 2010)

Experiments:
[1] = system: Hepatitis C virus; experiment: Antiviral activity against Hepatitis C virus infected in human Huh7ET cells assessed as inhibition of viral replication after 72 hrs by luciferase reporter gene assay; assay type: functional, organism-based
[2] = Cytotoxicity against human Huh7ET cells assessed as lactate dehydrogenase release up to 5 uM after 72 hrs; assay type: cell-based; conditions: huh-7, 72 h
[3] = Intrinsic clearance in CD1 mouse liver microsomes at 1 uM after 5 to 30 mins by MS analysis in presence of NADPH; assay type: ADME, Microsome
[4] = Cytotoxicity against human Huh7ET cells assessed as lactate dehydrogenase release up to 10 uM after 72 hrs; assay type: cell-based; conditions: huh-7, 72 h
[5] = target: Cytochrome P450 2C19 (Homo sapiens, UniProt P33261); experiment: Inhibition of human recombinant CYP2C19 after 30 mins; assay type: ADME
[6] = target: Cytochrome P450 2C9 (Homo sapiens, UniProt P11712); experiment: Inhibition of human recombinant CYP2C9 after 30 mins; assay type: ADME
[7] = target: T1, Cytochrome P450 1A2 (Homo sapiens, UniProt P05177); experiment: Inhibition of human recombinant CYP1A2 after 30 mins; assay type: ADME
T1 sequence (P05177 whole entry): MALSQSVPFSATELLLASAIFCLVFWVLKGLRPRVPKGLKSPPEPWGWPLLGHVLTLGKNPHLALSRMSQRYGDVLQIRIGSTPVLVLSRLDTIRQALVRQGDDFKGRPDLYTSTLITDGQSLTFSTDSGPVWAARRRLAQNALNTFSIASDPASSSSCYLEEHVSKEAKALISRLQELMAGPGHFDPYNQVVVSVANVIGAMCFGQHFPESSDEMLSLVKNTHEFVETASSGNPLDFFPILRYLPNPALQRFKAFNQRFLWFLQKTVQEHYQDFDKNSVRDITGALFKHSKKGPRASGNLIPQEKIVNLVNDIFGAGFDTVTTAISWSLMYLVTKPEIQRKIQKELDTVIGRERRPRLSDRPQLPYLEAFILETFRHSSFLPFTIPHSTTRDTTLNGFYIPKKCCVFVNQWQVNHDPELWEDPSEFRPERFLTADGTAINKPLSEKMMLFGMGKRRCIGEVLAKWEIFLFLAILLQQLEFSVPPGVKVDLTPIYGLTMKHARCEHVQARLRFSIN

[8] = Cmax in monkey at 1 mg/kg, iv after 24 hrs by LC/MS/MS analysis; assay type: ADME, organism-based, Macaca mulatta; parameters: dose 1 mg/kg, route intravenous; conditions: rhesus monkey, in vivo
[9] = Apparent volume of distribution in Sprague-Dawley rat at 5 mg/kg, iv after 24 hrs by LC/MS/MS analysis; assay type: ADME, organism-based; parameters: dose 5 mg/kg, route intravenous; conditions: in vivo, read-out: Vz
[10] = Systemic clearance in Sprague-Dawley rat at 5 mg/kg, iv after 24 hrs by LC/MS/MS analysis; assay type: ADME, organism-based; parameters: dose 5 mg/kg, route intravenous; conditions: in vivo
[11] = Apparent elimination half life in monkey at 1 mg/kg, iv by LC/MS/MS analysis; assay type: ADME, organism-based, Macaca mulatta; parameters: dose 1 mg/kg, route intravenous; conditions: rhesus monkey, in vivo
[12] = AUC (0 to infinity) in monkey at 1 mg/kg, iv after 24 hrs by LC/MS/MS analysis; assay type: ADME, organism-based, Macaca mulatta; parameters: time infinity, dose 1 mg/kg, route intravenous; conditions: rhesus monkey, plasma
[13] = Cmax in monkey at 7.5 mg/kg, po after 24 hrs by LC/MS/MS analysis; assay type: ADME, organism-based, Macaca mulatta; parameters: dose 7.5 mg/kg, route oral; conditions: rhesus monkey, in vivo
[14] = Tmax in Sprague-Dawley rat at 5 mg/kg, po by LC/MS/MS analysis; assay type: ADME, organism-based; parameters: dose 5 mg/kg, route oral; conditions: in vivo
[15] = Tmax in Sprague-Dawley rat at 10 mg/kg, po by LC/MS/MS analysis; assay type: ADME, organism-based; parameters: dose 10 mg/kg, route oral; conditions: in vivo
[16] = Tmax in Sprague-Dawley rat at 20 mg/kg, po by LC/MS/MS analysis; assay type: ADME, organism-based; parameters: dose 20 mg/kg, route oral; conditions: in vivo
[17] = Tmax in monkey at 5 mg/kg, po by LC/MS/MS analysis; assay type: ADME, organism-based, Macaca mulatta; parameters: dose 5 mg/kg, route oral; conditions: rhesus monkey, in vivo
[18] = Tmax in monkey at 15 mg/kg, po by LC/MS/MS analysis; assay type: ADME, organism-based, Macaca mulatta; parameters: dose 15 mg/kg, route oral; conditions: rhesus monkey, in vivo
[19] = Apparent elimination half life Sprague-Dawley rat at 5 mg/kg, po after 24 hrs by LC/MS/MS analysis; assay type: ADME, organism-based; parameters: dose 5 mg/kg, route oral; conditions: in vivo
[20] = Apparent elimination half life Sprague-Dawley rat at 20 mg/kg, po after 24 hrs by LC/MS/MS analysis; assay type: ADME, organism-based; parameters: dose 20 mg/kg, route oral; conditions: in vivo
[21] = Apparent elimination half life in monkey at 5 mg/kg, po after 24 hrs by LC/MS/MS analysis; assay type: ADME, organism-based, Macaca mulatta; parameters: dose 5 mg/kg, route oral; conditions: rhesus monkey, in vivo
[22] = Apparent elimination half life in monkey at 15 mg/kg, po after 24 hrs by LC/MS/MS analysis; assay type: ADME, organism-based, Macaca mulatta; parameters: dose 15 mg/kg, route oral; conditions: rhesus monkey, in vivo
[23] = Oral bioavailability in Sprague-Dawley rat at 5 mg/kg after 24 hrs by LC/MS/MS analysis; assay type: ADME, organism-based; conditions: in vivo
[24] = Oral bioavailability in Sprague-Dawley rat at 10 mg/kg after 24 hrs by LC/MS/MS analysis; assay type: ADME, organism-based; conditions: in vivo
[25] = AUC (2 to 24 hrs) in Sprague-Dawley rat liver at 10 mg/kg, iv by LC/MS/MS analysis; assay type: ADME, organism-based; parameters: time 2-24 hr, dose 10 mg/kg, route intravenous
[26] = AUC (2 to 24 hrs) in Sprague-Dawley rat whole blood at 10 mg/kg, iv by LC/MS/MS analysis; assay type: ADME, organism-based; parameters: time 2-24 hr, dose 10 mg/kg, route intravenous
[27] = Cmax in Sprague-Dawley rat liver at 10 mg/kg, po by LC/MS/MS analysis; assay type: ADME, organism-based; parameters: dose 10 mg/kg, route oral
[28] = Cmax in Sprague-Dawley rat liver at 30 mg/kg, po by LC/MS/MS analysis; assay type: ADME, organism-based; parameters: dose 30 mg/kg, route oral
[29] = Cmax in Sprague-Dawley rat whole blood at 10 mg/kg, iv by LC/MS/MS analysis; assay type: ADME, organism-based; parameters: dose 10 mg/kg, route intravenous
[30] = Cmax in Sprague-Dawley rat whole blood at 10 mg/kg, po by LC/MS/MS analysis; assay type: ADME, organism-based; parameters: dose 10 mg/kg, route oral
[31] = Cmax in Sprague-Dawley rat whole blood at 30 mg/kg, po by LC/MS/MS analysis; assay type: ADME, organism-based; parameters: dose 30 mg/kg, route oral
[32] = system: Hepatocyte; experiment: Cellular uptake in human hepatocytes assessed per mg of cellular protein association with nonparenchymal fraction at 2.27 uM after 1 hr by LC/MS/MS analysis; assay type: ADME, cell-based
[33] = system: Hepatocyte; experiment: Cellular uptake in human hepatocytes assessed per mg of cellular protein association with hepatocyte fraction at 2.27 uM after 1 hr by LC/MS/MS analysis; assay type: ADME, cell-based
[34] = system: Hepatitis C virus; experiment: Antiviral activity against Hepatitis C virus infected in human Huh7ET cells assessed as inhibition of viral replication at 0.02 to 5 uM after 24 hrs by luciferase reporter gene assay; assay type: functional, Hepacivirus hominis, Huh-7
[35] = Cytotoxicity against human Huh7ET cells assessed as lactate dehydrogenase release up to 5 uM after 72 hrs in presence of 10 to 40% human serum; assay type: cell-based; conditions: huh-7, 72 h
[36] = Cytotoxicity against human Huh7 cells assessed as lactate dehydrogenase release after 72 hrs; assay type: cell-based, Huh-7
[37] = AUC (2 to 24 hrs) in Sprague-Dawley rat whole blood at 10 mg/kg, po by LC/MS/MS analysis; assay type: ADME, organism-based; parameters: time upper 24 hr, time lower 2 hr, dose 10 mg/kg, route oral
[38] = system: Hepatitis C virus; experiment: microbe, parasite or virus in culture; conditions: Huh-7, 72 h
[39] = system: Hepatitis C virus; experiment: microbe, parasite or virus in culture; conditions: Huh-7, 72 h; remark: listed apart in the source
[40] = system: Hepatitis C virus; experiment: microbe, parasite or virus in culture; conditions: Huh-7, 120 h
Description: Antiviral activity against Hepatitis C virus infected in human Huh7ET cells assessed as inhibition of viral replication after 120 hrs by luciferase reporter gene assay

[41] = system: Hepatitis C virus; experiment: microbe, parasite or virus in culture; conditions: Huh-7, 24 h
Description: Antiviral activity against Hepatitis C virus infected in human Huh7ET cells assessed as inhibition of viral replication after 24 hrs by RT-PCR analysis

Sequence of Cytochrome P450 2C19 (P33261 whole entry): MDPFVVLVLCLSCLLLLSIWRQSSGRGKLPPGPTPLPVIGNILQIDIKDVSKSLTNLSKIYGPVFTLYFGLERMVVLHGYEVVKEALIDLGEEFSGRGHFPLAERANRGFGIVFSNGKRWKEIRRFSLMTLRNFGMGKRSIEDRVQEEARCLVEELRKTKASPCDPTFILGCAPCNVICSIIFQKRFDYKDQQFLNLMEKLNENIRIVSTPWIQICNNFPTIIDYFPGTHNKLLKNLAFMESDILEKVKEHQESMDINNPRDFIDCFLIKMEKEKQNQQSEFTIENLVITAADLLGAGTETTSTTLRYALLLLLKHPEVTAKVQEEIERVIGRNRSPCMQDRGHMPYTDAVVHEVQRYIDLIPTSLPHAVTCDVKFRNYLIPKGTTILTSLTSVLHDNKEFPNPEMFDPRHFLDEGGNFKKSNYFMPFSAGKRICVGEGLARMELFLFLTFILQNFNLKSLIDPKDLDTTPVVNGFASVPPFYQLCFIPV
Sequence of Cytochrome P450 2C9 (P11712 whole entry): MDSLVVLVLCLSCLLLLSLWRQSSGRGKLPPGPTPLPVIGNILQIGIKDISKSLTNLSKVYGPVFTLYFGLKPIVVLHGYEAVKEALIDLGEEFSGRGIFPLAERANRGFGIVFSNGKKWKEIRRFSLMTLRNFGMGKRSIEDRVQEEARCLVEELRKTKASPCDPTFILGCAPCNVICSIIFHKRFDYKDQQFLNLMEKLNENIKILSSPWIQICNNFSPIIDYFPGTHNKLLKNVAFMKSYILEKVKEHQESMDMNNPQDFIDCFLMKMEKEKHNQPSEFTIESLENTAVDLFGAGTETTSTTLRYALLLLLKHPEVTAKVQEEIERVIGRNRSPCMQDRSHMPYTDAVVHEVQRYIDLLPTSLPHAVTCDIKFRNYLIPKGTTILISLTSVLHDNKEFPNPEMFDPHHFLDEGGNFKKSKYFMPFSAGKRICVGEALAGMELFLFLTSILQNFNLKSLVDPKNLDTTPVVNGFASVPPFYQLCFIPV

C/C=C/C[C@@H](C)[C@@H](O)[C@H]1C(=O)N[C@@H](CC)C(=O)N(C)C(SCCN(C)C)C(=O)N(C)[C@@H](CC(C)(C)O)C(=O)N[C@@H](C(C)C)C(=O)N(C)[C@@H](CC(C)C)C(=O)N[C@@H](C)C(=O)N[C@H](C)C(=O)N(C)[C@@H](CC(C)C)C(=O)N(C)[C@@H](CC(C)C)C(=O)N(C)[C@@H](C(C)C)C(=O)N1C (single isomer, unassigned) [SCY 635]
Activity ([1]; Hepacivirus hominis, Huh-7): Dose-dependent effect | EC90 ([1]; Huh-7, 72 h): 350 nM | Activity [2]: Non-toxic | clearance [3]: 9 µL/min/mg | Activity [4]: Non-toxic | IC50 [5]: 12400 nM | IC50 [6]: 13400 nM | IC50 [7]: > 100000 nM | Cmax [8]: 2560 ng/mL | Vd [9]: 4.3 L/kg | clearance [10]: 2.23 mL/min/kg | half-life [11]: 22.3 h | AUC(0-inf) [12]: 31500 ng·h/mL | Cmax [13]: 1930 ng/mL | Tmax [14]: 4 h | Tmax [15]: 8 h | Tmax [16]: 4 h | Tmax [17]: 2 h | Tmax [18]: 2 h | half-life [19]: 19.2 h | half-life [20]: 23.8 h | half-life [21]: 24.6 h | half-life [22]: 43.3 h | bioavailability [23]: 23.1% | bioavailability [24]: 23.6% | AUC(0-t) [25]: 139000 ng·h/mL | AUC(0-t) [26]: 30500 ng·h/mL | Cmax [27]: 11100 ng/mL | Cmax [28]: 16800 ng/mL | Cmax [29]: 3360 ng/mL | Cmax [30]: 1870 ng/mL | Cmax [31]: 2220 ng/mL | Drug uptake [32]: 3.16 ng/mg | Drug uptake [33]: 6.05 ng/mg | inhibition (INH) [34]: 70% | Activity [35]: Non-toxic | CC50 at 72 h [36]: 13700 nM | AUC(0-t) [37]: 18000 ng·h/mL | EC50 [38]: 90 nM | EC50 [39]: 110 nM | EC50 [40]: 150 nM | EC50 [41]: 120 nM
